Assay results from patent US5472949A, “N^4 -(substituted-oxycarbonyl)-5'-deoxy-5-fluorocytidine compounds, compositions and methods of using same” (Hoffmann-La Roche Inc., priority 1992, dated 1995).

Experiments:
[1] = Toxicity (LD50), oral administration daily for 21 days in mice; details: mouse, in vivo
Protocol: The toxicity (LD50) of the representative compounds (Example 13,14, and 17) of the present invention was examined by oral administration daily for 21 days in mice. The representative LD50 values obtained from the experiments were more than 500 mg/kg/day.

[2] = tested on: CXF280 Human Colon Carcinoma; test: Antitumor testing against human colon cancer xenograft CXF280; format: in vivo, BALB/c nu/nu mice; set-up: key to Fecal observation: N: normal feces; L: loose passage
Protocol: CXF280 tumor (about 2×2 mm piece) was implanted subcutaneously into BALB/c nu/nu mice (21-22 g) on day 0. When tumor volume became 100 mm^3 on day around 14, the compounds of the invention were orally administered daily for 3 weeks. At one day after the last treatment, tumor volume was calculated.
The percent inhibition of tumor growth given in Table 3 above was calculated from the formula:
% Inhibition ={1-(T-V0)/(C-V0)}×100
V0 =volume of tumor before treatment was started, T=volume of the tumors from the treated group, C=volume of the tumor from the control group.

[3] = tested on: colon 26 carcinoma; test: Antitumor and anticachexia activity against mouse colon 26 carcinoma; format: in vivo, Mice (CDF1); details: for Serum IAP: IAP = immunosuppressive acidic protein
Protocol: Antitumor activity of a representative compound (Example 13), of the present invention, was measured as follows. Mice (CDF1) were subcutaneously inoculated with colon 26 carcinoma (10^6 cells) on day 0. The compound was administered daily for 7 times from day 21 when the animals became cachectic. One day after the last treatment, tumor weight gain, carcass weight gain, adipose tissue weight, concentrations of glucose and the acute phase reactant IAP (immunosuppressive acidic protein) in the serum were measured.

[4] = Pharmacokinetic profiles in monkeys (plasma 5'-DFUR after oral administration); format: in vivo; details: cynomolgous monkeys, metabolite 5'-DFUR in plasma
Protocol: The compounds of formula (I) were orally administered into groups of 2 to 5 cynomolgous monkeys (3-4 kg). At various times after the administration, plasma was taken for determination of blood concentrations of intact molecules and their active metabolite 5'-DFUR. Metabolites in the plasma were separated by HPLC and their concentrations were calculated.

[5] = tested on: monkey liver acylamidase; test: Susceptibility to monkey liver acylamidase (crude liver extract, 5'-DFCR formed by HPLC); format: in vitro ADME; details: tetrahydrouridine 0.4 mM, 37° C., 60 min
Protocol: (§1) The N^4 -(substituted-oxycarbonyl)-5'-DFCRs of the invention were incubated with crude extracts of monkey and human liver in the presence of an inhibitor of cytidine deaminase, tetrahydrouridine (0.4 mM) at 37° C. for 60 min. Thereafter, the product 5'-DFCR was separated by HPLC and the enzyme susceptibility was calculated from the amount of the product.

[6] = tested on: human liver acylamidase; test: Susceptibility to human liver acylamidase (crude liver extract, 5'-DFCR formed by HPLC); format: in vitro ADME; details: tetrahydrouridine 0.4 mM, 37° C., 60 min
Protocol: as §1

CCCCCCOC(=O)Nc1nc(=O)n([C@@H]2O[C@H](C)[C@@H](O)[C@H]2O)cc1F [Example 13, 5'-deoxy-5-fluoro-N^4-(hexyloxycarbonyl)cytidine]
LD50 at 504 h [1]: > 500 mg/kg | Fecal observation ([2]; Exp. 1, 1.5 mmol/kg/day x 21, oral): N | inhibition in vivo at 0.13 mmol/kg/day ([2]; Mus musculus, po, Exp. 1, 0.13 mmol/kg/day x 21, oral, read-out: % Growth inhibition): 59% | inhibition in vivo at 0.3 mmol/kg/day ([2]; Mus musculus, po, Exp. 1, 0.3 mmol/kg/day x 21, oral, read-out: % Growth inhibition): 66% | inhibition in vivo at 0.67 mmol/kg/day ([2]; Mus musculus, po, Exp. 1, 0.67 mmol/kg/day x 21, oral, read-out: % Growth inhibition): 79% | inhibition in vivo at 1 mmol/kg/day ([2]; Mus musculus, po, Exp. 1, 1.0 mmol/kg/day x 21, oral, read-out: % Growth inhibition): 91% | inhibition in vivo at 1.5 mmol/kg/day ([2]; Mus musculus, po, Exp. 1, 1.5 mmol/kg/day x 21, oral, read-out: % Growth inhibition): 94% | Adipose tissue wt. ([3]; 0.125 mmol/kg x 7, from day 21): 22 mg | Carcass wt. change ([3]; 0.125 mmol/kg x 7, from day 21): 1.6 g | Serum glucose ([3]; 0.125 mmol/kg x 7, from day 21): 118 mg/dL | Tumor wt. change ([3]; 0.125 mmol/kg x 7, from day 21): 1.24 g | Serum IAP ([3]; 0.125 mmol/kg x 7, from day 21): 1195 µg/mL | Adipose tissue wt. ([3]; 0.25 mmol/kg x 7, from day 21): 42 mg | Carcass wt. change ([3]; 0.25 mmol/kg x 7, from day 21): 3.4 g | Serum glucose ([3]; 0.25 mmol/kg x 7, from day 21): 120 mg/dL | Tumor wt. change ([3]; 0.25 mmol/kg x 7, from day 21): 0.91 g | Serum IAP ([3]; 0.25 mmol/kg x 7, from day 21): 1020 µg/mL | Adipose tissue wt. ([3]; 0.5 mmol/kg x 7, from day 21): 63 mg | Carcass wt. change ([3]; 0.5 mmol/kg x 7, from day 21): 4.2 g | Serum glucose ([3]; 0.5 mmol/kg x 7, from day 21): 147 mg/dL | Tumor wt. change ([3]; 0.5 mmol/kg x 7, from day 21): 0.79 g | Serum IAP ([3]; 0.5 mmol/kg x 7, from day 21): 805 µg/mL | Adipose tissue wt. ([3]; 1 mmol/kg x 7, from day 21): 85 mg | Carcass wt. change ([3]; 1 mmol/kg x 7, from day 21): 5.6 g | Serum glucose ([3]; 1 mmol/kg x 7, from day 21): 127 mg/dL | Tumor wt. change ([3]; 1 mmol/kg x 7, from day 21): 0.006 g | Serum IAP ([3]; 1 mmol/kg x 7, from day 21): 795 µg/mL | cachexia (in words) ([3]; daily for 7 times from day 21): improved cachexia | tumor growth (in words) ([3]; daily for 7 times from day 21): suppressed tumor growth | Plasma 5'-DFUR AUC [4]: 1960 ng·h/mL | Acylamidase activity, Monkey Liver [5]: 47 nmol/mg protein/hr | Acylamidase activity, Human Liver [6]: 220 nmol/mg protein/hr
